Data from patent US6998411B2, “2-Methylheptylisonicotinate and process for production thereof” (Council of Scientific and Industrial Research, priority 2001, dated 2006).
≈ marks a conversion by molar mass, not a printed value. Where two headings read alike, the source gives them in different places.

Key:
Format in all cases: cell-based
[1] = system: Rhizoctonia solani; assay: antifungal activity, MIC
[2] = system: F. semitectum; assay: antifungal activity, MIC; conditions: Fusarium incarnatum
[3] = system: Arthrobacter sp.; assay: antibacterial activity, MIC
[4] = system: Proteus mirabilis; assay: antibacterial activity, MIC
[5] = system: E. coli; assay: antibacterial activity, MIC; conditions: Escherichia coli
[6] = system: Shigella sp.; assay: antibacterial activity, MIC
[7] = system: F. semitechtum; assay: agar cup assay, zone of inhibition; conditions: purified compound, 10 μg of the substance
Protocol: (§1) 2-Methylheptylisonicotinate of formula 1 was bioassayed following agar cup assay method (Grammer, 1976). […] The antibacterial activity of the bioactive molecule was tested against dominant bacterial strains such as Bacillus subtilis, E. coli, Shigella sp., Klebsiella sp. and Proteus mirabilis. Maximum inhibition was recorded in E. coli (30 mm in diameter) and Proteus mirabilis (28 mm). […] Maximum zone of inhibition was recorded in Fusarium solani and F. semitechtum (26 mm with 10 μg of the substance), and in F. oxysporum inhibition zone was 25 mm. Similar inhibition was also observed in F. moniliformae and Rhizoctonia solani (24 mm and 22 mm) respectively (Tables 2, 3 & 4). The above antibiotic activity against dominant pathogens is the clear indication of the potential application of the compound for both agricultural and medical purposes.
as §1, with “2-Methylheptylisonicotinate” for “2-Methylheptylisonicotinate of formula”, “(Table” for “(Tables”, “4).” for “4). The above antibiotic activity against dominant pathogens is the clear indication of the potential application of the compound for both agricultural and medical purposes.”

[8] = system: F. oxysporum; assay: agar cup assay, zone of inhibition; conditions: purified compound, 10 μg of the substance
Protocol: as §1
as §1, with “2-Methylheptylisonicotinate” for “2-Methylheptylisonicotinate of formula”, “(Table” for “(Tables”, “4).” for “4). The above antibiotic activity against dominant pathogens is the clear indication of the potential application of the compound for both agricultural and medical purposes.”

[9] = system: Rhizoctonia solani; assay: agar cup assay, zone of inhibition; conditions: purified compound, 10 μg of the substance
Protocol: as §1
as §1, with “2-Methylheptylisonicotinate” for “2-Methylheptylisonicotinate of formula”, “(Table” for “(Tables”, “4).” for “4). The above antibiotic activity against dominant pathogens is the clear indication of the potential application of the compound for both agricultural and medical purposes.”

[10] = system: F. solani; assay: agar cup assay, zone of inhibition; conditions: purified compound, 10 μg of the substance
Protocol: as §1
as §1, with “2-Methylheptylisonicotinate” for “2-Methylheptylisonicotinate of formula”, “(Table” for “(Tables”, “4).” for “4). The above antibiotic activity against dominant pathogens is the clear indication of the potential application of the compound for both agricultural and medical purposes.”

[11] = system: Proteus mirabilis; assay: agar cup assay, zone of inhibition; conditions: purified compound, 10 μg of the substance
Protocol: as §1
as §1, with “2-Methylheptylisonicotinate” for “2-Methylheptylisonicotinate of formula”, “(Table” for “(Tables”, “4).” for “4). The above antibiotic activity against dominant pathogens is the clear indication of the potential application of the compound for both agricultural and medical purposes.”

[12] = system: Bacillus subtilis; assay: agar cup assay, zone of inhibition; conditions: purified compound, 10 μg of the substance
Protocol: as §1
as §1, with “2-Methylheptylisonicotinate” for “2-Methylheptylisonicotinate of formula”, “(Table” for “(Tables”, “4).” for “4). The above antibiotic activity against dominant pathogens is the clear indication of the potential application of the compound for both agricultural and medical purposes.”

[13] = system: Klebsiella sp.; assay: agar cup assay, zone of inhibition; conditions: purified compound, 10 μg of the substance
Protocol: as §1
as §1, with “2-Methylheptylisonicotinate” for “2-Methylheptylisonicotinate of formula”, “(Table” for “(Tables”, “4).” for “4). The above antibiotic activity against dominant pathogens is the clear indication of the potential application of the compound for both agricultural and medical purposes.”

[14] = system: E. coli; assay: agar cup assay, zone of inhibition; conditions: purified compound, 10 μg of the substance
Protocol: as §1
as §1, with “2-Methylheptylisonicotinate” for “2-Methylheptylisonicotinate of formula”, “(Table” for “(Tables”, “4).” for “4). The above antibiotic activity against dominant pathogens is the clear indication of the potential application of the compound for both agricultural and medical purposes.”

[15] = system: Fusarium moniliforme; assay: agar cup assay, zone of inhibition; conditions: purified compound, 10 μg of the substance
Protocol: as §1
as §1, with “2-Methylheptylisonicotinate” for “2-Methylheptylisonicotinate of formula”, “(Table” for “(Tables”, “4).” for “4). The above antibiotic activity against dominant pathogens is the clear indication of the potential application of the compound for both agricultural and medical purposes.”

[16] = system: Shigella sp.; assay: agar cup assay, zone of inhibition; conditions: purified compound, 10 μg of the substance
Protocol: as §1
as §1, with “2-Methylheptylisonicotinate” for “2-Methylheptylisonicotinate of formula”, “(Table” for “(Tables”, “4).” for “4). The above antibiotic activity against dominant pathogens is the clear indication of the potential application of the compound for both agricultural and medical purposes.”

[17] = system: F. moniliformae; assay: antifungal activity, MIC
[18] = system: Klebsiella sp.; assay: antibacterial activity, MIC
[19] = system: F. oxysponim; assay: antifungal activity, MIC
[20] = system: Bacillus subtilis; assay: antibacterial activity, MIC
[21] = system: F. solani; assay: antifungal activity, MIC; conditions: Fusarium solani
[22] = Fusarium oxysporum, read-out: MIC

| Structure (SMILES) | MIC [1] | MIC [2] | MIC [3] | MIC [4] | MIC [5] | MIC [6] | MIC ([17]; read-out: MIC) | MIC [18] | MIC [19, 22] | MIC [20] | MIC [21] | further results |
| --- | --- | --- | --- | --- | --- | --- | --- | --- | --- | --- | --- | --- |
| CCCCCC(C)COC(=O)c1ccncc1 (stereo not shown) [Compound 1, 2-methylheptylisonicotinate] | 20 µg/mL (≈ 85 µM) | 20 µg/mL (≈ 85 µM) | 40 µg/mL (≈ 170 µM) | 40 µg/mL (≈ 170 µM) | 70 µg/mL (≈ 297 µM) | 60 µg/mL (≈ 255 µM) | 45 µg/mL (≈ 191 µM) | 50 µg/mL (≈ 212 µM) | 43 µg/mL (≈ 183 µM) | 50 µg/mL (≈ 212 µM) | 20 µg/mL (≈ 85 µM) | Inhibition zone [7]: 26 mm; Inhibition zone [8]: 25 mm; Inhibition zone [9]: 22 mm; Inhibition zone [10]: 26 mm; Inhibition zone [11]: 28 mm; Inhibition zone [12]: 20 mm; Inhibition zone [13]: 18 mm; Inhibition zone [14]: 30 mm; Inhibition zone [15]: 24 mm; Inhibition zone [16]: 20 mm; MIC ([17]; listed as I): 42 µg/mL (≈ 178 µM); MIC ([19]; F. oxysponim (F. oxysporum), listed as I): 45 µg/mL (≈ 191 µM) |
| NNC(=O)c1ccncc1 [Isoniazid, isonicotinic acid hydrazide, reference compound] | 250 µg/mL (≈ 1820 µM) | 300 µg/mL (≈ 2190 µM) | 150 µg/mL (≈ 1090 µM) | 200 µg/mL (≈ 1460 µM) | 250 µg/mL (≈ 1820 µM) | 300 µg/mL (≈ 2190 µM) | 200 µg/mL (≈ 1460 µM) | 250 µg/mL (≈ 1820 µM) | 350 µg/mL (≈ 2550 µM) | 150 µg/mL (≈ 1090 µM) | 300 µg/mL (≈ 2190 µM) | – |
